Activity calls are given as the source filed them. The rule behind the calls is not given here.
Each compound was assayed on Broad 7084-01 inhibitor HTS, set 2 (assay: single-concentration hits, screen 7084 set 2 (AID 977613);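 note: host cells are infected with parasite promastigotes that become internalized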).
With `CCN1CC(=O)N2[C@@H](CO)[C@@H](c3ccc(Br)cc3)[C@@H]2C1` the active concentration was > 10 µM (inactive). In the case of `CN1C(=O)c2cc(NC(=O)Nc3ccccc3Cl)ccc2OC[C@H]2O[C@H](CC(=O)NCCCN3CCOCC3)CC[C@@H]21`, the active concentration was > 10 µM (inactive). In the case of `CCNC(=O)C[C@@H]1CC[C@H]2[C@@H](COC[C@@H](O)CN2C(=O)C2CC2)O1`, the active concentration was > 10 µM (inactive). For `COc1cccc(S(=O)(=O)N2CCCCN3[C@H](CO)[C@H](c4ccc(C#CCC(C)C)cc4)[C@@H]3C2)c1`, the active concentration was > 10 µM (inactive). `CN(C)CC#Cc1ccc([C@@H]2[C@@H](CO)N3C(=O)CN(C(=O)CN(C)C)C[C@H]23)cc1` was tested, and the active concentration was > 10 µM (inactive). `O=C(c1ccccc1)N1CC(=O)N2[C@H](CO)[C@@H](c3ccc(-c4ccccc4)cc3)[C@H]2C1` was tested, and the active concentration was > 10 µM (inactive). In the case of `N#Cc1ccc(-c2ccc3c(c2)[C@H]2[C@H](CCN2C(=O)C2CCCCC2)[C@H](CO)N3)cc1`, the active concentration was > 10 µM (inactive). For `O=C(NCC1CCCCC1)[C@@H]1[C@@H](CO)[C@@H]2Cn3c(ccc(-c4cncnc4)c3=O)[C@H]1N2`, the active concentration was > 10 µM (inactive). With `O=C(Nc1cc(F)ccc1F)N1CC(=O)N2[C@H](C1)[C@@H](c1ccc(/C=C/c3ccccc3)cc1)[C@@H]2CO` the active concentration was > 10 µM (inactive). `CN(C)C(=O)[C@@H]1[C@@H](CO)[C@@H]2Cn3c(cccc3=O)[C@@H]2N1C(=O)C1CCC1` was tested, and the active concentration was > 10 µM (inactive). `Cc1noc(C)c1NC(=O)N1C[C@@H](O)COC[C@@H]2O[C@H](CC(=O)NCC3CCCCC3)CC[C@H]21` was tested, and the active concentration was > 10 µM (inactive). In the case of `Cc1nn(C)cc1NC(=O)C[C@@H]1CC[C@@H]2[C@H](COc3ccc(NC(=O)C4CCOCC4)cc3C(=O)N2C)O1`, the active concentration was > 10 µM (inactive). For `CCS(=O)(=O)N1CC(=O)N2[C@@H](CO)[C@@H](c3ccc(C#CC4CCCCC4)cc3)[C@@H]2C1`, the active concentration was > 10 µM (inactive). In the case of `CC=Cc1ccc2n(c1=O)C[C@H]1[C@H](CO)[C@@H](C(=O)NCCC)N(Cc3cocn3)[C@@H]21` (mixture of isomers), the active concentration was > 10 µM (inactive). `COc1cccc(CN2[C@H](CO)[C@@H](c3ccccc3)C23CN(Cc2ccccc2OC)C3)c1` was tested, and the active concentration was > 10 µM (inactive). With `C/C=C/c1ccccc1[C@H]1[C@@H](CO)N(C(=O)NC2CCCCC2)[C@H]1C#N` the active concentration was > 10 µM (inactive). For `Cc1ccccc1-c1ccccc1[C@H]1[C@@H](C#N)N(C(=O)c2cccc(F)c2)[C@H]1CO`, the active concentration was > 10 µM (inactive). In the case of `CN(C)C(=O)C[C@H]1CC[C@@H]2[C@H](COC[C@H](O)CN2CC2CCCC2)O1`, the active concentration was > 10 µM (inactive). With `CCCC(=O)N1CCC2(CC1)CN(Cc1ccc(Cl)cc1)[C@H](CO)c1[nH]c3cc(OC)ccc3c12` the active concentration was > 10 µM (inactive). For `Cc1ccc(CN2CC(=O)N3[C@H](CO)[C@@H](c4ccc(-c5ccccc5F)cc4)[C@H]3C2)cc1`, the active concentration was > 10 µM (inactive). `CN1c2ccc(Br)cc2[C@H]2[C@H](CCN2C(=O)Nc2ccccc2F)[C@H]1CO` was tested, and the active concentration was > 10 µM (inactive). With `O=C(O)[C@H]1[C@H](CO)[C@H]2Cn3c(ccc(/C=C/c4ccccc4)c3=O)[C@H]2N1Cc1ccc2c(c1)OCO2` the active concentration was > 10 µM (inactive). `CN(C)CC(=O)N1CCCCN2[C@@H](CO)[C@@H](c3ccc(/C=C/c4ccccc4)cc3)[C@@H]2C1` showed an active concentration of under 10 µM. `COc1ccc2c3c([nH]c2c1)[C@H](CO)N(C(C)=O)CC31CN(Cc2ccccc2Cl)C1` was tested, and the active concentration was > 10 µM (inactive). With `O=C(C[C@H]1CC[C@@H]2[C@H](COC[C@@H](O)CN2S(=O)(=O)c2cccc(Cl)c2)O1)Nc1ccc(-c2ccccc2)cc1` the active concentration was > 10 µM (inactive). In the case of `Cc1ccc(CN2CC(=O)N3[C@H](C2)[C@@H](c2ccc(-c4ccccc4F)cc2)[C@@H]3CO)cc1`, the active concentration was > 10 µM (inactive). `O=C(NCCc1ccncc1)[C@H]1[C@H](CO)[C@H]2Cn3c(ccc(-c4ccccc4)c3=O)[C@H]2N1C(=O)C1CC1` was tested, and the active concentration was > 10 µM (inactive). In the case of `O=C(c1ccccc1F)N1CC(=O)N2[C@@H](CO)[C@@H](c3ccc(C#Cc4ccccc4)cc3)[C@@H]2C1`, the active concentration was > 10 µM (inactive). For `CN1[C@@H]2CNc3ccccc3[C@@H]2[C@@H]1CO`, the active concentration was > 10 µM (inactive). `O=C(C1CCOCC1)N1CC(=O)N2[C@H](C1)[C@H](c1ccc(-c3cccnc3)cc1)[C@@H]2CO` was tested, and the active concentration was > 10 µM (inactive). `CN1CCN(C(=O)C[C@@H]2CC[C@H]3[C@@H](COC[C@@H](O)CN3CC3CC3)O2)CC1` was tested, and the active concentration was > 10 µM (inactive). `O=C(C1CCCCC1)N1CC2(C1)[C@H](c1ccccc1)[C@@H](CO)N2C(=O)c1cccnc1` was tested, and the active concentration was > 10 µM (inactive). In the case of `Cc1cccc(S(=O)(=O)N2CC[C@@H]3[C@H]2c2cc(-c4ccccc4F)ccc2N(C)[C@H]3CO)c1`, the active concentration was > 10 µM (inactive). In the case of `O=C(NC1Cc2ccccc2C1)[C@H]1[C@H](CO)[C@H]2Cn3c(cccc3=O)[C@H]2N1C(=O)c1cnccn1`, the active concentration was > 10 µM (inactive). With `O=C(C[C@@H]1CC[C@@H]2[C@H](COC[C@H](O)CN2Cc2cc(F)cc(F)c2)O1)NC1CCC1` the active concentration was > 10 µM (inactive). `COC(=O)[C@H]1[C@H](CO)[C@H]2Cn3c(ccc(C4=CCCCC4)c3=O)[C@H]2N1Cc1ccc2c(c1)OCO2` was tested, and the active concentration was > 10 µM (inactive). With `CCNC(=O)Nc1ccc2c(c1)C(=O)N(C)[C@H]1CC[C@@H](CC(=O)N[C@@H](C)c3ccccc3)O[C@H]1CO2` the active concentration was > 10 µM (inactive). With `O=C(Cc1ccccc1)N1C[C@@H]2[C@H](c3ccccc31)[C@@H](CO)N2C(=O)c1cccc(F)c1` the active concentration was > 10 µM (inactive). For `CCC(=O)N1[C@@H](CO)[C@@H]2c3ccccc3N(S(=O)(=O)c3ccccc3C)C[C@@H]21`, the active concentration was > 10 µM (inactive). For `N#C[C@H]1[C@H](c2ccccc2-c2ccccc2F)[C@@H](CO)N1C(=O)Cc1ccccc1`, the active concentration was > 10 µM (inactive). With `O=S(=O)(c1ccc(F)cc1)N1CCCCN2[C@H](CO)[C@@H](c3ccc(-c4cncnc4)cc3)[C@H]2C1` the active concentration was > 10 µM (inactive). For `Cc1ccccc1S(=O)(=O)N1CCCCN2[C@H](C1)[C@H](c1ccc(C#CCN(C)C)cc1)[C@@H]2CO`, the active concentration was > 10 µM (inactive). With `CN1C[C@@H](O)COC[C@@H]2O[C@@H](CC(=O)NC3CCCC3)CC[C@H]21` the active concentration was > 10 µM (inactive). With `N#C[C@H]1[C@H](c2ccccc2-c2ccccc2F)[C@H](CO)N1C(=O)Cc1ccccc1` the active concentration was > 10 µM (inactive). With `O=C(Nc1ccccc1)N1C[C@H]2[C@@H](c3ccccc31)[C@H](CO)N2Cc1ccccc1Cl` the active concentration was > 10 µM (inactive). With `CN1C(=O)c2cc(NS(C)(=O)=O)ccc2OC[C@@H]2O[C@H](CC(=O)NC3CCCCC3)CC[C@H]21` the active concentration was > 10 µM (inactive). With `O=C(C1CCOCC1)N1CC2(C1)[C@H](c1ccccc1)[C@H](CO)N2CCC(F)(F)F` the active concentration was > 10 µM (inactive). With `O=C1CN(S(=O)(=O)Cc2ccccc2)C[C@@H]2[C@@H](c3ccc(C#Cc4ccccc4)cc3)[C@@H](CO)N12` the active concentration was > 10 µM (inactive). For `CCCC#Cc1ccc([C@H]2[C@H]3CN(C(=O)CN4CCOCC4)CC(=O)N3[C@H]2CO)cc1`, the active concentration was > 10 µM (inactive). For `Cc1ccccc1-c1ccccc1[C@@H]1[C@@H](C#N)N(C(=O)c2ccccc2)[C@H]1CO`, the active concentration was > 10 µM (inactive).

From PubChem BioAssay AID977613 (Broad Institute, 2014)
